Patent publication US4820712A, “Sparsomycin (SC-RS) compounds having antitumor activity, a process for their preparation and pharmaceutical compositions containing sparsomycin (SC-RS) compounds” (priority 1986, dated 1989)
Like-named read-outs stand apart in the source and are kept apart here.

What was measured:
[1] = system: RC (renal cell) carcinoma; assay: in vivo antitumor assay, RC (renal cell) carcinoma; design: species or system CDF1 mice
Protocol: (§1) The antitumor activity of the present compounds has also been investigated by in vivo assays. In the assays, mice were treated for nine days in succession, starting at 24 hours after the time of tumor implant.
(§2) The results are shown in tables 4, 5 and 6 and represent the number of tumor-bearing mice surviving after administration of optimal doses of the test compound, expressed as a treatment/control (T/C×100%) ratio. In the tables, information is provided with respect to the sex, dose, weight loss of treated animals compared to control animals, and the number of survivors in groups of 6 mice.

P388 leukemia = assay: in vivo antitumor assay, P388 leukemia; design: species or system CDF1 mice
Protocol: as §1, §2

[2] = system: ribosomes from E. coli MRE600 (peptidyl transferase activity); assay: polyphenylalanine synthesis assay, E. coli ribosomes; format: biochemical; conditions: concentration giving 50% inhibition relative to control; 37° C., 30 min; read-out: ED50 polyPhe synthesis E. coli
Protocol: (§3) The peptidyl transferase activity was measured by the polyphenylalanine synthesis assay (Nirenberg and Matthei, Proc. Natl. Acad. Sci. USA 47 (1961) 1588), the fragment reaction (Monro, Methods Enzymol. 20 (1971) 472) and the puromycin reaction. In all the in vitro tests, i.e. polyPhe synthesis, fragment reaction and puromycin reaction, ribosomes from E. coli MRE600 and S. cerevisiae Y166 were used. The reaction mixture for polyphenylalanine synthesis was slightly different for E. coli and S. cerevisiae.
E. coli: The reaction mixture (50 μl) contained 50 mM Tris-HCl pH 7.6, 15 mM MgCl2, 90 mM KCl, 15 mM β-mercapto ethanol, 1 mM GTP, 10 mM ATP, 0.2 mg/ml of polyuridylic acid, 1.5 mg/ml tRNA, 0.3 μM of ribosomes, 2.5 mg/ml of phosphoenol pyruvate, 20 μg/ml of pyruvate kinase, the required concentration of sparsomycin or its analogue and 5 μl of supernatant fraction S-100. Subsequently, [^3 H]phenylalanine, 30 μM (about 60 cpm/pmol) was added to start the reaction. Incubation was at 37° C. for 30 min. The reaction was stopped by the addition of 1 ml of 10% TCA and the samples were filtered through glass fiber filters. The filters were washed with 10 ml of cold 10% TCA, dried and counted for radioactivity.
(§4) The concentration of sparsomycin or an analog giving 50% inhibition of the protein synthesis relative to the control is given in ED50.

[3] = biological target: ribosomes from S. cerevisiae Y166 (peptidyl transferase activity); assay: fragment reaction, S. cerevisiae ribosomes; format: biochemical; conditions: 50% inhibition relative to control; 0° C., 30 min, 33% methanol; read-out: ED50 Fragment reaction S. cerevisiae
Protocol: as §3
(§5) The fragment reaction was carried out in 150 μl of 33 mM Tris-HCl pH 7.4, 270 mM KCl, 13 mM magnesium acetate containing 1 mg/ml of ribosomes, 2 mM puromycin, 1 pmol of N-acetyl-[^3 H]Leu-ACCAC(U), the required concentration of sparsomycin or its analogue and 33% methanol. The reaction was initiated by the addition of the alcohol and allowed to proceed at 0° C. for 30 min, and was then stopped by the addition of 100 μl of 0.3M sodium acetate pH 5.5 saturated with MgSO4. The samples were extracted with 1.5 ml of ethyl acetate and 1 ml of the organic phase was checked for radioactivity. The 3' terminal pentanucleotide N-acetyl-[^3 H]Leu-ACCAC(U) was prepared from N-acetyl-[^3 H]Leu-tRNA by ribonuclease T1 as described by Monro.
as §4

acute toxicity LD50 = format: in vivo, mice; conditions: for LD50: mouse, in vivo, ip, daily x9 injections, mice, 95% confidence interval given, read-out: LD 50 in mg/kg/inj i.p. in mice
Text: It appears therefrom that ala-sparsomycin is about 9× less toxic than sparsomycin.

L1210 leukemia = assay: in vivo antitumor assay, L1210 leukemia; design: species or system CDF1 mice
Protocol: as §1, §2

Leukemia L 1210 cells = assay: in vitro clonogenic L1210 assay (inhibition of colony formation in soft agar); format: cell-based; conditions: Mus musculus, L1210, 72 h, read-out: ID50 (dose giving 50% inhibition of L1210 colony formation)
Protocol: The in vitro clonogenic assay was effected in Leukemia L 1210 cells in soft agar medium (0.3%). […] In the analysis, the inhibition of the L 1210 colony formation by sparsomycin and derivatives thereof is determined for various concentrations, and the dose giving 50% inhibition of the colony formation, as compared with non-treated control cells is calculated (ID50).
From a suspension culture one hundred L 1210 cells are plated out in 35 mm culture dishes (Falcon) containing 1 ml soft agar culture medium and the compound to be investigated in suitable concentrations. The soft agar culture medium consists of Dulbecco's medium supplemented with 20% horse serum, 60 μmole 2-mercaptoethanol, 20 mg/ml L-asparagine, 75 mg/ml DEAE dextran (molecular weight 2×10^6) and 0.3% bacto agar (Difco). The culture dishes were incubated at 37° C. in an atmosphere of 10% CO2 in humidified air for 3 days. After this period of continuous exposure to the medicament the colonies were counted and dose-effect curves made. From these curves, the medicament dose is calculated which causes 50% inhibition of the colony formation as compared with non-treated control cells.

[4] = system: ribosomes from E. coli MRE600 (peptidyl transferase activity); assay: fragment reaction, E. coli ribosomes; format: biochemical; conditions: 50% inhibition relative to control; 0° C., 30 min, 33% methanol; read-out: ED50 Fragment reaction E. coli
Protocol: as §3, §5, §4

[5] = biological target: ribosomes from S. cerevisiae Y166 (peptidyl transferase activity); assay: polyphenylalanine synthesis assay, S. cerevisiae ribosomes; format: biochemical; conditions: concentration giving 50% inhibition relative to control; 30° C., 30 min; read-out: ED50 polyPhe synthesis S. cerevisiae
Protocol: as §3
S. cerevisiae: The test was carried out as indicated above for E. coli. The phosphoenol pyruvate and pyruvate kinase were, however, replaced by creatine phosphate (20 mM) and creatine phosphokinase (50 μg/ml). The incubation was performed at 30° C. for 30 min and the samples were processed as described above. Under these conditions the control samples polymerized 5-14 and 3-8 molecules of phenylalanine per ribosome derived from E. coli and S. cerevisiae, respectively. Ribosomes and supernatant factors from E. coli and S. cerevisiae were prepared according to standard procedures, described by Staehelin and Maglott, Methods Enzymol. 20 (1971) 449, and by Sanchez-Madrid et al, Eur. J. Biochem. 98 (1979) 409.
as §4

[6] = female mice, ip daily x9, dose mg/kg: 2a 2.3
[7] = male mice, ip daily x9, optimal dose mg/kg: sparsomycin 0.125, n-octyl 20.0, benzyl 2.7, 2a 1.1
[8] = male mice, ip daily x9, dose mg/kg: sparsomycin 0.125, n-octyl 20.0, benzyl 2.7, 2a 1.1
[9] = female mice, ip daily x9, dose mg/kg: 2a 3.4
[10] = female mice, ip daily x9, optimal dose mg/kg: sparsomycin 0.25, n-octyl 12.0, benzyl 10.0, 2a 2.5, 2e 13.3
[11] = female mice, ip daily x9, dose mg/kg: sparsomycin 0.25, n-octyl 12.0, benzyl 10.0, 2a 2.5, 2e 13.3
[12] = male mice, ip daily x9, optimal dose mg/kg: sparsomycin 0.125, n-octyl 20.0, benzyl 4.0, 2a 1.7
[13] = male mice, ip daily x9, dose mg/kg: sparsomycin 0.125, n-octyl 20.0, benzyl 4.0, 2a 1.7

Compound | T/C (survival, treatment/control x 100%) [1, 7] [%] | cures (survivors in groups of 6 mice) [1, 8] | IC50 [2] [µM] | IC50 [3] [µM] | LD50 (acute toxicity LD50) [mg/kg] | T/C (survival, treatment/control x 100%) (L1210 leukemia; [10]) [%] | cures (survivors in groups of 6 mice) (L1210 leukemia; [11]) | T/C (survival, treatment/control x 100%) (L1210 leukemia; [12]) [%] | cures (survivors in groups of 6 mice) (L1210 leukemia; [13]) | IC50 [4] [µM] | IC50 [5] [µM] | further results
CSC[S@+]([O-])C[C@H](C)NC(=O)/C=C/c1c(C)[nH]c(=O)[nH]c1=O [2a, (Sc Rs)-1-(methylthiomethyl)sulfinyl-2-[β-(6-methyl-5-uracilyl)acrylamido]-propane] | 304 | 0/6 | 15.1 | 5.7 | 2.33 | 184 | 0/6 | 248 | 2/6 | 4.7 | 7.5 | T/C (survival, treatment/control x 100%) ([1]; female mice, ip daily x9, optimal dose mg/kg: 2a 2.3): 300%; cures (survivors in groups of 6 mice) [1, 6]: 0/6; weight loss (T - C) [1, 6]: -1.5 g; weight loss (T - C) [1, 8]: -0.6 g; T/C (survival, treatment/control x 100%) (P388 leukemia; female mice, ip daily x9, optimal dose mg/kg: 2a 3.4): 170%; cures (survivors in groups of 6 mice) (P388 leukemia; [9]): 0/6; weight loss (T - C) (P388 leukemia; [9]): -2.3 g; times less toxic than sparsomycin (LD50 ratio) (acute toxicity LD50; compared with sparsomycin, LD50 i.p. in mice): about 9 ×; weight loss (T - C) (L1210 leukemia; [11]): -1.4 g; weight loss (T - C) (L1210 leukemia; male mice, ip daily x9 from 24 h after implant, dose mg/kg: sparsomycin 0.125, n-octyl 20.0, benzyl 4.0, 2a 1.7): -2.0 g; IC50 (Leukemia L 1210 cells): 0.1 µM
CSC[S@+]([O-])C[C@H](CO)NC(=O)/C=C/c1c(C)[nH]c(=O)[nH]c1=O [Sparsomycin] | 100 | 0/6 | 8.5 | 2.8 | 0.26 | 121 | 0/6 | 105 | 0/6 | 3.2 | 5.2 | weight loss (T - C) ([1]; mouse, in vivo, ip): -1.7 g; T/C (survival, treatment/control x 100%) (P388 leukemia; male mice, ip daily x9, optimal dose mg/kg: sparsomycin 0.125, n-octyl 22.5, benzyl 2.0, 2e 20.0): 88%; cures (survivors in groups of 6 mice) (P388 leukemia; male mice, ip daily x9, dose mg/kg: sparsomycin 0.125, n-octyl 22.5, benzyl 2.0, 2e 20.0): 0/6; weight loss (T - C) (P388 leukemia; mouse, in vivo, ip): -3.0 g; weight loss (T - C) (L1210 leukemia; mouse, in vivo, ip): -1.1 g; IC50 (Leukemia L 1210 cells; soft agar 0.3%, 3 days continuous exposure, vs non-treated control cells): 0.4 µM
